In publication PMC4122973 (Bioscience Reports, 2014):
“Also recorded” adds a separate entry of the source.

Experiments:
TRPA1 804N = target: T1, TRPA1 804N (Homo sapiens, UniProt O75762, S804N); test: Fluo-3 intracellular Ca2+ assay, HEK-293 cells expressing TRPA1 804N SNP variant; type: cell-based; details: HEK-293 TRPA1 804N; mean ±standard deviation, n=4; read-out: EC50 cinnamaldehyde
T1 construct: expressed in transfected cells
Text: (§1) Human TRPA1 cDNA in pcDNA3.1neo [41] was mutated to create SNP variants using quick change PCR with appropriate primer pairs: R797T forward 5′ […] TT and reverse 5′ […], S804N forward 5′ […] ATGTTC and reverse 5′ […]. Likewise, the experimental mutant S873E, in ICL-2 (intracellular loop-2), was created using PCR primers: forward 5′ […] […] and reverse 5′ […]. For C-terminal extension, TRPA1cDNA was modified by excision of the 3′ section of the coding region (BamHI–XbaI digestion) and replacement with a BamHI–XbaI digested PCR amplified section containing codons for ten histidine residues (His)10 prior to the translation stop codon using T4 DNA ligase (Promega). PCR primers were: sense 5′ TTTAC […] CATT 3′ and antisense 5′ […] […] TGCCTT 3′. […]
(§2) Aliquots of cell suspension (usually 100 μl) were used for measurement of intracellular Ca^2+ transients using a PTI (Photon Technology International) 814 photomultiplier detection system interfaced with a desktop computer (PTI Inc.). […] The cuvette was illuminated using light at a wavelength of 506 nm (slit width 8 nm) and monitored using fluorescence detection at 526 nm (slit width 8 nm) coupled to FeliX GX software (PTI Inc). […] Real-time fluorescence intensity measurements were collected and data were exported to Microsoft Excel for analysis. […]

TRPA1 797R = target: T2, TRPA1 797R (Homo sapiens, UniProt O75762); test: Fluo-3 intracellular Ca2+ assay, HEK-293 cells expressing TRPA1 797R (reference sequence); type: cell-based
T2 construct: expressed in transfected cells
T2 sequence (O75762 whole entry): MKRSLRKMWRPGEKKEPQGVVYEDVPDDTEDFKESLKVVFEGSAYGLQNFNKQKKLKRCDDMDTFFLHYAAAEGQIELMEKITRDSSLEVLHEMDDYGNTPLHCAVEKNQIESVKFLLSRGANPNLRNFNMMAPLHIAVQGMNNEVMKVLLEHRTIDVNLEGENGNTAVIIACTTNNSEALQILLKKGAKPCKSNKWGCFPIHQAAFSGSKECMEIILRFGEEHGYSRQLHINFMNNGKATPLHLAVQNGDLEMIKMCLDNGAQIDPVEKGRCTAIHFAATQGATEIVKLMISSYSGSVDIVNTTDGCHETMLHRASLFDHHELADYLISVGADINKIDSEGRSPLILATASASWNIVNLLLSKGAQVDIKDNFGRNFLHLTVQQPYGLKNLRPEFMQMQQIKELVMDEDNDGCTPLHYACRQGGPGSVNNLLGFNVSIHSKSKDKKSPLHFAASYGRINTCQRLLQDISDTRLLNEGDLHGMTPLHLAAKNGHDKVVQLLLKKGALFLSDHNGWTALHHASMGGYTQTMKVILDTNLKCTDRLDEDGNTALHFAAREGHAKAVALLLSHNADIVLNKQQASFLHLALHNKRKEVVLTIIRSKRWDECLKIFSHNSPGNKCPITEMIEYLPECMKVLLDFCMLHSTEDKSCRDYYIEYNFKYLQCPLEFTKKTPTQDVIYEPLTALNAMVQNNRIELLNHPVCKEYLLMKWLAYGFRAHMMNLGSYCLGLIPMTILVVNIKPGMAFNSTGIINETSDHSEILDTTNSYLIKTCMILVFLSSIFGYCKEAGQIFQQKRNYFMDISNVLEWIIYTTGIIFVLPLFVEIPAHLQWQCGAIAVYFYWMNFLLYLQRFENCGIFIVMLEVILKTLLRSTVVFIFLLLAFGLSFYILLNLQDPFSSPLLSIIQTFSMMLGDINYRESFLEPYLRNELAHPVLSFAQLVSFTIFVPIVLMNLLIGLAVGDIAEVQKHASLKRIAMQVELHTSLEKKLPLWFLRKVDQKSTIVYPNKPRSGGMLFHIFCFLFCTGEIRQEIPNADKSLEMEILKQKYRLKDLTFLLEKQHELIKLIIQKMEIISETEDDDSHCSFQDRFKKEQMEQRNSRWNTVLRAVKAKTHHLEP
Procedure: When cells reached approximately 80% confluence they were harvested for assays measuring Ca^2+ transients in response to TRP channel activation. Following a brief wash with PBS, cells were detached from each T75 flask by soaking with 2 ml Hepes-buffered saline EDTA (10 mM Hepes pH7.4, 155 mM NaCl, 1.7 mM EDTA) for several minutes and were harvested by addition of 10 ml PBS with gentle agitation and transfer to a 25 ml universal. A sample was taken to calculate cell yield using a hemocytometer and the cells were pelleted by centrifugation at 1500 rpm for 4 min. […]

TRPA1 797T = target: T3, TRPA1 797T (Homo sapiens, UniProt O75762, R797T); test: Fluo-3 intracellular Ca2+ assay, HEK-293 cells expressing TRPA1 797T SNP variant; type: cell-based; details: HEK-293 TRPA1 797T; mean ±standard deviation, n=4; read-out: EC50 cinnamaldehyde
T3 construct: expressed in transfected cells
T3 sequence (O75762 whole entry R797T): as the sequence (O75762 whole entry) above, with R797T counted along it
Text: as §1, §2

TRPA1-(His)10 = target: T4, TRPA1-(His)10 (Homo sapiens, UniProt O75762); test: Fluo-3 intracellular Ca2+ assay, HEK-293 cells expressing TRPA1-(His)10; type: cell-based; details: HEK-293 TRPA1-(His)10; mean ±standard deviation, n=4; read-out: EC50 cinnamaldehyde
T4 construct: expressed in transfected cells
T4 sequence (O75762 with tags, fused parts or gaps limits assumed): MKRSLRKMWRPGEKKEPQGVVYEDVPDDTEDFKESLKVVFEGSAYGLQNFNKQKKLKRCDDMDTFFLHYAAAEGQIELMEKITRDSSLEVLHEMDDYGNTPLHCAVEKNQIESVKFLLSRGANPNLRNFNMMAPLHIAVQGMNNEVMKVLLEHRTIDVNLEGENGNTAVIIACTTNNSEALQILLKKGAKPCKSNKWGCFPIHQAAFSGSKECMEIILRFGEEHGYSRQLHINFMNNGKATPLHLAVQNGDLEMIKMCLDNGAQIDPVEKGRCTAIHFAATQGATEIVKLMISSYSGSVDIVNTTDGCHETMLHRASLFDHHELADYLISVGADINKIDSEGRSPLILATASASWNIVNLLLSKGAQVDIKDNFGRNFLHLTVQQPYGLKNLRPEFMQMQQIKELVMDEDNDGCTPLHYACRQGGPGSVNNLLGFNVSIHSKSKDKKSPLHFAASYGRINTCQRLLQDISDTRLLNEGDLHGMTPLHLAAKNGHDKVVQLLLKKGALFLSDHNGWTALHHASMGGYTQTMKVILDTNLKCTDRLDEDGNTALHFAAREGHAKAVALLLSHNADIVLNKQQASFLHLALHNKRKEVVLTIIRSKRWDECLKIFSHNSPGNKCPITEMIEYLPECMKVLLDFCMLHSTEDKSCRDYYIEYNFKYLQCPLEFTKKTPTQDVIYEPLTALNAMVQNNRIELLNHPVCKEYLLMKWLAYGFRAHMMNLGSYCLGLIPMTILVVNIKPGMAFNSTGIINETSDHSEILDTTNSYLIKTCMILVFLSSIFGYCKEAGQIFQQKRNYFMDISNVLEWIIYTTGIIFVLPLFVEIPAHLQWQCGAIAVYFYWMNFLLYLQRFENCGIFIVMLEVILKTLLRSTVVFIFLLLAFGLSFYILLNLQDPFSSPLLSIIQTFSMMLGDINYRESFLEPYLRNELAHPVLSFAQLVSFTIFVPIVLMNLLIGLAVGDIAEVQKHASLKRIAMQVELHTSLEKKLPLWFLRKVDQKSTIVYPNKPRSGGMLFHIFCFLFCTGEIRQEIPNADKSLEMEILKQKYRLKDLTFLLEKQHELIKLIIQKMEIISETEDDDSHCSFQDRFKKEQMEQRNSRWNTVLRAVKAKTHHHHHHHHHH
Text: as §1, §2

TRPM8 FK 1045,1046 AG [1] = target: T5, TRPM8 FK 1045,1046 AG (Homo sapiens, UniProt Q7Z2W7, F1045A/K1046G); test: Fluo-3 intracellular Ca2+ assay, SH-SY5Y cells expressing TRPM8 FK 1045,1046 AG mutant; type: cell-based
T5 construct: expressed in transfected cells
T5 sequence (Q7Z2W7 whole entry F1045A/K1046G): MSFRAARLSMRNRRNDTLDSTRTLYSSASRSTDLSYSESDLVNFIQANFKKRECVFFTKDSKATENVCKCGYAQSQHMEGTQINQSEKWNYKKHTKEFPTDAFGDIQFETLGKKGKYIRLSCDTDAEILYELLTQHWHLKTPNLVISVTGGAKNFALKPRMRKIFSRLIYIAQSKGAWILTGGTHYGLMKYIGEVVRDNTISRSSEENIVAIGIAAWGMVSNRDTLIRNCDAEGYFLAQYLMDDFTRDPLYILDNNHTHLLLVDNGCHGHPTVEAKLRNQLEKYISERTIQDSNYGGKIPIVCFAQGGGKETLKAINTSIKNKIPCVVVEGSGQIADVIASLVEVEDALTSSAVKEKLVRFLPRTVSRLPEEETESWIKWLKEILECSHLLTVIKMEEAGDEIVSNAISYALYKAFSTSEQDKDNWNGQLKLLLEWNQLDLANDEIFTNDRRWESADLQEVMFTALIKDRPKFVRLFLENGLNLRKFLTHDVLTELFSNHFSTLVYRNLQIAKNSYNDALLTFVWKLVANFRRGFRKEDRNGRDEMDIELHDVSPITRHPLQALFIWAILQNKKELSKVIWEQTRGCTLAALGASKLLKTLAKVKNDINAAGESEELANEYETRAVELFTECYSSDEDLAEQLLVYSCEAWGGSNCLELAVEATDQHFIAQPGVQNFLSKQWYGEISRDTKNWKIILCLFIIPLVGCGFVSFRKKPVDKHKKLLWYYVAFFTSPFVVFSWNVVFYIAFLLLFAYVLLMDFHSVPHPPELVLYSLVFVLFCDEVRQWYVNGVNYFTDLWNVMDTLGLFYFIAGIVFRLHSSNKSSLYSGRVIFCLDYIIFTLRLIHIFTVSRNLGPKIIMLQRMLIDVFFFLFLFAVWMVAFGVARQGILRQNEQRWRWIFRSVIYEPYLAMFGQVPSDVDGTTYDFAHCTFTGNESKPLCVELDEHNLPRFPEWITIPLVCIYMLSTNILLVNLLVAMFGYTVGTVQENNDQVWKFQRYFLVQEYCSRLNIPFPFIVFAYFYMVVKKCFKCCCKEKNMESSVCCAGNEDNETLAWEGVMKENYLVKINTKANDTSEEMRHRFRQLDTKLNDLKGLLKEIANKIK
Text: (§3) Human TRPM8 cDNA was cloned by RT–PCR from human prostate cancer cell line LNCaP (from the American Type Culture Collection) by ligation into pcDNA3.1neo and its DNA sequence validated (L.R. Sadofsky, unpublished work). Normal TRPM8 cDNA was mutated using synthetic oligonucleotides (from Eurofins, MWG, Operon) to amplify full-length plasmid DNA with Pfu DNA polymerase (Thermo Scientific). Amplified DNA was used to transform competent Esherichia coli (Agilent) and individual plasmid clones were screened by diagnostic restriction enzyme digestion-agarose gel electrophoresis. […]
(§4) Cell suspension for assay was added to 1.9 ml isotonic assay buffer (no BSA) in a 10×10×45 mm polystyrene cuvette (Sarstedt Ltd) containing a small magnetic flea for continuous stirring (~50 rpm), to bring the final volume to 2 ml, and placed within the photomultipler light box. […] Real-time fluorescence intensity measurements were collected and data were exported to Microsoft Excel for analysis. […]
(§5) Data from the measurement of Ca^2+ transients (each treatment including a 2 μM A23187 Ca^2+ ionophore control) were used to generate fluorescence intensity traces in Microsoft Excel. RFU (relative fluorescence unit) values for baseline and agonist-induced peak Ca^2+ fluo-3-fluorescence were determined by the manual analysis of graphs. […]

SH-SY5Y TRPA1 R797T = target: T6, SH-SY5Y TRPA1 R797T (Homo sapiens, UniProt O75762, R797T); test: Fluo-3 intracellular Ca2+ assay, TRPA1-transfected SH-SY5Y cells that lost response to agonist; type: cell-based; details: pre-treatment followed by AITC
T6 construct: expressed in transfected cells
T6 sequence (O75762 whole entry R797T): as the sequence (O75762 whole entry) above, with R797T counted along it
Procedure: (§6) When cells reached approximately 80% confluence they were harvested for assays measuring Ca^2+ transients in response to TRP channel activation. […] A sample was taken to calculate cell yield using a hemocytometer and the cells were pelleted by centrifugation at 1500 rpm for 4 min.
Cell suspension for assay was added to 1.9 ml isotonic assay buffer (no BSA) in a 10×10×45 mm polystyrene cuvette (Sarstedt Ltd) containing a small magnetic flea for continuous stirring (~50 rpm), to bring the final volume to 2 ml, and placed within the photomultipler light box. […] Slit apertures were adjusted to enable maximum sensitivity while maintaining low noise. TRP channel agonist was administered by injection into the cuvette using a 1–20 μl pipette fitted with a narrow, extended-reach disposable tip. […] Real-time fluorescence intensity measurements were collected and data were exported to Microsoft Excel for analysis. […]
as §5, with “graphs. Agonist dose-dependent changes in peak RFU were expressed as ΔRFU relative to baseline and relative to maximum RFU elicited by A23187.” for “graphs.”

[2] = test system: HEK-293 cells transfected with empty pcDNA3.1neo vector; test: Fluo-3 intracellular Ca2+ assay, control HEK-293 cells with empty pcDNA3.1neo vector; type: cell-based, human; details: HEK-293 empty pcDNA3.1neo vector; 40 nM WS 12 (Figure S1a)
Procedure: Following a brief wash with PBS, cells were detached from each T75 flask by soaking with 2 ml Hepes-buffered saline EDTA (10 mM Hepes pH7.4, 155 mM NaCl, 1.7 mM EDTA) for several minutes and were harvested by addition of 10 ml PBS with gentle agitation and transfer to a 25 ml universal. A sample was taken to calculate cell yield using a hemocytometer and the cells were pelleted by centrifugation at 1500 rpm for 4 min. The pellet was resuspended in isotonic buffer (145 mM NaCl, 5 mM KCl, 1 mM MgCl2, 1 mM CaCl2, 10 mM Hepes pH7.4, 10 mM glucose, a variable content of probenecid (0, 0.13, 0.26, 0.52, 1.0, 2.0 or 2.5 mM) or 0.18 mM sulfinpyrazone, with optional 10 mg/ml BSA (all from Sigma-Aldrich) at a density of 5×10^6/ml and mixed with 2.5 or 5.0 μl Fluo-3AM (Invitrogen) from a 2.5 μg/μl stock solution prepared in (DMSO, Sigma-Aldrich). Cells were incubated in a 25 ml universal in the dark at room temperature with gentle rotary mixing (50 rpm) for 30–45 min and then washed by addition of 18 ml PBS followed by centrifugation and resuspension in isotonic buffer without BSA at 5×10^6 cells/ml. […] Real-time fluorescence intensity measurements were collected and data were exported to Microsoft Excel for analysis. […]

TRPM8 SV 762,763 EL = target: T7, TRPM8 SV 762,763 EL (Homo sapiens, UniProt Q7Z2W7, S762E/V763L); test: Fluo-3 intracellular Ca2+ assay, HEK-293 cells expressing TRPM8 SV 762,763 EL mutant; type: cell-based; details: HEK293 TRPM8 SV / EL; mean±S.E.M., n=3; read-out: EC50 for WS 12 (peak intracellular Ca2+ fluorescence)
T7 construct: expressed in transfected cells
T7 sequence (Q7Z2W7 whole entry S762E/V763L): as the sequence (Q7Z2W7 whole entry F1045A/K1046G) above, with S762E, V763L, A1045F, G1046K counted along it
Text: as §3, §4, §5

TRPM8 FK 1045,1046 AG [3] = target: T5, TRPM8 FK 1045,1046 AG; test: Fluo-3 intracellular Ca2+ assay, HEK-293 cells expressing TRPM8 FK 1045,1046 AG mutant; type: cell-based; details: HEK293 TRPM8 FK / AG; mean±S.E.M., n=3; read-out: EC50 for WS 12 (peak intracellular Ca2+ fluorescence)
Text: as §3, §4, §5

human TRPM8 = target: T8, human TRPM8 (Homo sapiens, UniProt Q7Z2W7); test: Fluo-3 intracellular Ca2+ assay, HEK-293 cells expressing normal human TRPM8; type: cell-based
T8 construct: expressed in transfected cells
T8 sequence (Q7Z2W7 whole entry): as the sequence (Q7Z2W7 whole entry F1045A/K1046G) above, with A1045F, G1046K counted along it
Procedure: as §6
Cell suspension for assay was added to 1.9 ml isotonic assay buffer (no BSA) in a 10×10×45 mm polystyrene cuvette (Sarstedt Ltd) containing a small magnetic flea for continuous stirring (~50 rpm), to bring the final volume to 2 ml, and placed within the photomultipler light box. […] Slit apertures were adjusted to enable maximum sensitivity while maintaining low noise. TRP channel agonist was administered by injection into the cuvette using a 1–20 μl pipette fitted with a narrow, extended-reach disposable tip. Antagonists were pre-added to cuvettes where appropriate. Real-time fluorescence intensity measurements were collected and data were exported to Microsoft Excel for analysis. Experimental treatments were performed in triplicate on three separate occasions to facilitate statistical analyses of reproducibility.
Data from the measurement of Ca^2+ transients (each treatment including a 2 μM A23187 Ca^2+ ionophore control) were used to generate fluorescence intensity traces in Microsoft Excel. RFU (relative fluorescence unit) values for baseline and agonist-induced peak Ca^2+ fluo-3-fluorescence were determined by the manual analysis of graphs. Agonist dose-dependent changes in peak RFU were expressed as ΔRFU relative to baseline and relative to maximum RFU elicited by A23187. […] This enabled estimation of excitatory concentration EC50 for agonists and inhibitory concentration IC50 values where pre-incubation with antagonist was employed. Comparisons between data generated in triplicate within individual experiments and between experiments performed on […] were analysed using Student's t test and one-way ANOVA with post-hoc analysis of group means using Tukey's multiple comparison test.

T1 sequence (O75762 whole entry S804N): as the sequence (O75762 whole entry) above, with S804N counted along it

`O=C/C=C/c1ccccc1` [cinnamaldehyde] showed an EC50 (TRPA1 804N) of 11000 ± 3000 nM, an EC50 (TRPA1 797R) of 15000 ± 5000 nM and an EC50 (TRPA1 797T) of 3000 ± 1000 nM. For the same compound, the EC50 (TRPA1-(His)10) was 8000 ± 2000 nM.

With `Nc1ncnc2c1cnn2-c1ccccc1` [PP3, 4-amino-7-phenylpyrazol[3,4-d]pyrimidine] the “Effect of pre-treatment on responses to TRPM8 agonist” value (TRPM8 FK 1045,1046 AG [1]; 150 nM WS 12) was “did not affect responses; also recorded: did not inhibit responses” and the “Recovery of responses to TRPA1 agonists after pre-treatment” value (SH-SY5Y TRPA1 R797T) was “did not facilitate recovery”.

For `CC1CCC(C(C)C)C(O)C1` (stereo not drawn) [menthol], the “Intracellular Ca2+ transients in empty-vector control cells” value [2] was “did not exhibit intracellular Ca^2+ transients”.

With `COc1ccc(NC(=O)[C@@H]2CC(C)CC[C@H]2C(C)C)cc1` (stereo partly drawn) [WS 12, (1R,2S)-N-(4-methoxyphenyl)-5-methyl-2-(1-methylethyl)cyclohexanecarbo-xamide] the “Intracellular Ca2+ transients in empty-vector control cells” value [2] was “did not exhibit intracellular Ca^2+ transients”, the EC50 (TRPM8 FK 1045,1046 AG [1]; mean±S.E.M., n=3, read-out: EC50 for WS 12 (peak intracellular Ca2+ fluorescence)) was 187 ± 37 nM and the EC50 (TRPM8 SV 762,763 EL) was 178 ± 22 nM. It also gave an EC50 (TRPM8 FK 1045,1046 AG [3]) of 194 ± 50 nM and an EC50 (human TRPM8; HEK293 TRPM8, mean±S.E.M., n=3, read-out: EC50 for WS 12 (peak intracellular Ca2+ fluorescence)) of 128 ± 22 nM.

In the case of `CCCN(CCC)S(=O)(=O)c1ccc(C(=O)O)cc1` [probenecid], the “Effect of low probenecid concentration on Ca2+ assay results” value (human TRPM8; 0.13 mM probenecid, relative to data derived using sulfinpyrazone, TRPM8 and TRPA1 assays) is reported as “did not affect”, the “Effect of probenecid on TRPM8-induced intracellular Ca2+ response” value (human TRPM8; probenecid above 1 mM, up to 2.5 mM, 40 nM WS 12) is reported as “inhibited; also recorded: suppressed the response to WS 12” and the “Effect of probenecid on TRPA1-induced intracellular Ca2+ response” value (TRPA1 797R; probenecid above 1 mM, up to 2.5 mM, 60 μM cinnamaldehyde) is reported as “suppressed; also recorded: inhibited”.
